Reference: patent publication US11795162B2, “Modulators of the estrogen-related receptor” (Saint Louis University, priority 2017, dated 2023)

Columns and labels:
[1] = target: T1, ERRγ (Homo sapiens, UniProt P62508); test: Full-length ERRγ luciferase reporter assay (ERRE reporter, HEK293 cells); assay type: cell-based; settings: HEK293 cells transfected with ERRE reporter and pcDNA3.1 ERRγ, 24 hours treatment
T1 construct: Data for selected compounds in the full-length; expressed in transfected cells; host or cells: HEK293
T1 sequence (P62508 1-458): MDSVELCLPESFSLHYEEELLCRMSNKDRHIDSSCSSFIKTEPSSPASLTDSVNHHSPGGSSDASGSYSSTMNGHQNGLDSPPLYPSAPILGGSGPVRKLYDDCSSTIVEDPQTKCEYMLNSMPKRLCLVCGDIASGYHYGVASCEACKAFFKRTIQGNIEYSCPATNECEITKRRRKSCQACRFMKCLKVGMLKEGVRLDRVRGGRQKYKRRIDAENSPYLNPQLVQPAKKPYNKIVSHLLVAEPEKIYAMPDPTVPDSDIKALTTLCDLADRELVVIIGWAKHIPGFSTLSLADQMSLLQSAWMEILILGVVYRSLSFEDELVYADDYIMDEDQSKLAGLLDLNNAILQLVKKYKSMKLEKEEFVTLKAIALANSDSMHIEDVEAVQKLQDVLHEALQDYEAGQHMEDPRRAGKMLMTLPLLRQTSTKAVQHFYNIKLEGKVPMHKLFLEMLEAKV
Protocol: Luciferase Assay. HEK293 cells were maintained in Dulbecco's modified Eagles medium (DMEM) supplemented with 10% fetal bovine serum at 37° C. under 5% CO2. […] Cells were transfected with ERRE reporter construct and pcDNA3.1 ERRγ. 24 hour post-transfection, the cells were treated with vehicle or compound for 24 hours.

[2] = target: T2, ERR gamma protein (Homo sapiens, UniProt P62508); test: Protein thermal shift assay; assay type: binding; settings: compound at 20 μM; ERR gamma protein 0.1 mg/mL, SYPRO-Orange; read-out: T.S. (thermal shift) range
T2 sequence (P62508 1-458): T1 sequence (P62508 1-458)
Protocol: Six replicate reactions were set up and run in Applied Biosystems Quantstudio 7 Real-Time PCR system. Data were collected at a ramp rate of 0.05° C./s from 24° C. through 95° C. and analyzed using Protein Thermal Shift Software 1.3.

Structure (SMILES) | EC50 [1] [µM] | ΔTm at 20 µM [2] [°C]
O=C(Nc1cccc(F)c1)c1ccc(-c2ccc(B(O)O)cc2)s1 [Compound 8, (4-(5-((3-fluorophenyl)carbamoyl)thiophen-2-yl)phenyl)boronic acid] | 0.089 | 
O=C(Nc1cccc(B(O)O)c1)c1ccc(-c2cccc(F)c2)s1 [Compound 50] | 0.563 | 2 to 4
O=C(Nc1cccc(O)c1)c1ccc(-c2ccsc2)s1 [Compound 74] | 1.01 | 
O=C(Nc1ccc(O)cc1)c1ccc(-c2ccc(C(F)(F)F)cc2)s1 [Compound 114] | 2.68 | 2 to 4
O=C(Nc1ccc2ccccc2c1)c1cc(-c2ccc(O)cc2)[nH]n1 [Compound 122] | 0.734 | 2 to 4
O=C(Nc1ccc2ccccc2c1)c1cc(-c2cccc(O)c2)[nH]n1 [Compound 123] |  | 2 to 4
O=C(Nc1ccc(Cl)cc1)c1cc(-c2ccc(O)cc2)[nH]n1 [Compound 124] |  | 2 to 4
O=C(Nc1ccc(Cl)cc1)c1cc(-c2cccc(O)c2)[nH]n1 [Compound 125] | > 25 | 2 to 4
Cc1ccc(NC(=O)c2cc(-c3cccc(O)c3)[nH]n2)cc1 [Compound 126] |  | 0 to 2
Cc1ccc(NC(=O)c2cc(-c3ccc(O)cc3)[nH]n2)cc1 [Compound 127] |  | 2 to 4
CC(C)(C)c1ccc(NC(=O)c2cc(-c3cccc(O)c3)[nH]n2)cc1 [Compound 128] |  | 0 to 2
CC(C)(C)c1ccc(NC(=O)c2cc(-c3ccc(O)cc3)[nH]n2)cc1 [Compound 129] |  | 0 to 2
CC(C)c1ccc(NC(=O)c2cc(-c3cccc(O)c3)[nH]n2)cc1 [Compound 130] |  | 0 to 2
O=C(Nc1ccc(O)cc1)c1cc(-c2ccc(O)cc2)[nH]n1 [Compound 131] |  | 2 to 4
Nc1cccc(NC(=O)c2ccc(-c3ccc(Cl)cc3)s2)c1 [Compound 132] |  | > 4
O=C(Nc1ccc(O)cc1)c1cc(-c2cccc(O)c2)[nH]n1 [Compound 134] |  | 0 to 2
O=C(NC1CCC(O)CC1)c1ccc(-c2ccccc2)o1 (centres unmarked) [Compound 135] | 3.5 | 

Structure (SMILES) | EC50 [1] [µM] | ΔTm at 20 µM [2] [°C]
O=C(NCc1ccc(Cl)cc1)c1ccc(-c2cccc(O)c2)o1 [Compound 136] |  | 0 to 2
CC(C)c1ccc(-c2ccc(C(=O)Nc3ccccn3)s2)cc1 [Compound 137] |  | 0 to 2
CC(C)c1ccc(-c2ccc(C(=O)Nc3cccnc3)s2)cc1 [Compound 138] |  | 0 to 2
CC(C)c1ccc(-c2ccc(C(=O)Nc3ccncc3)s2)cc1 [Compound 139] |  | 2 to 4
CC(C)c1ccc(-c2ccc(C(=O)Nc3cccc(O)c3)s2)cc1 [Compound 140] |  | 0 to 2
O=C(Nc1cccc(O)c1)c1cnc(-c2ccsc2)o1 [Compound 141] |  | 0 to 2
Nc1cccc(-c2ccc(C(=O)NCc3ccccc3)s2)c1 [Compound 142] |  | 0 to 2
O=C(Nc1ccc(F)cc1)c1ncc(-c2ccc(O)cc2)s1 [Compound 144] |  | 2 to 4
O=C(Nc1ccc(O)cc1)c1ncc(-c2ccsc2)s1 [Compound 146] |  | 2 to 4
O=C(Nc1cccc(O)c1)c1ncc(-c2ccsc2)s1 [Compound 147] |  | 0 to 2
Cc1ccccc1NC(=O)c1ccc(-c2cccc(O)c2)s1 [Compound 149] |  | 0 to 2
O=C(Nc1ccc(F)cc1)c1nc(-c2cccc(O)c2)cs1 [Compound 150] |  | 0 to 2
CC(C)c1cccc(NC(=O)c2ccc(-c3cccc(O)c3)s2)c1 [Compound 151] |  | 0 to 2
O=C(Nc1cccc(O)c1)c1nc(-c2ccsc2)cs1 [Compound 152] |  | 0 to 2
O=C(Nc1ccc(O)cc1)c1nc(-c2ccsc2)cs1 [Compound 153] |  | 0 to 2
O=C(Nc1ccccc1F)c1ccc(-c2cccc(C(=O)C(F)(F)F)c2)s1 [Compound 154] |  | 0 to 2
O=C(Nc1cccc(F)c1)c1ccc(-c2ccc(O)cc2)o1 [Compound 157] | 3.4 | 
